Read-outs that look alike come from different tables or passages of the source.
What was measured:
human NK2-receptor [1] = target: T1, human NK2-receptor (Homo sapiens, UniProt P21452); assay: Functional cellular test, Ca2+ measurements using FLIPR for NK2 activity;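 also: CHO cells stably expressing the human receptor, loaded with a calcium dye, antagonist inhibition of ligand-evoked intracellular calcium rise read as peak fluorescence change on FLIPR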
T1 sequence (P21452 1-398): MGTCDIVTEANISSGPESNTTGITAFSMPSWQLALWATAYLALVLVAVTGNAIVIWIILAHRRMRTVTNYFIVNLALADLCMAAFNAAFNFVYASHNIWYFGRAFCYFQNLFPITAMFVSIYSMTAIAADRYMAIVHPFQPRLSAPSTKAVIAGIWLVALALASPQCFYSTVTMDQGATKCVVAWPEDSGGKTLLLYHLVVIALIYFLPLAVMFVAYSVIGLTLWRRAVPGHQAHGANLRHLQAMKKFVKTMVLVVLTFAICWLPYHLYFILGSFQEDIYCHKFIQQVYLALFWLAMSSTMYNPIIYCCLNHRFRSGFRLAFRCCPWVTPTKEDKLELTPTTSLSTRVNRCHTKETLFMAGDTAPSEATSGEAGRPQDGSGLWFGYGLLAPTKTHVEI

human NK3 receptor [2] = target: T2, human NK3 receptor (Homo sapiens, UniProt P29371); assay: Functional cellular test, Ca2+ measurements using aequorin for NK3 activity; type: cell-based; parameters: expressed in transfected cells; host or cells: cell line co-expressing mitochondrially targeted apoaequorin (CHO according to b76/b77); conditions: for Kb: read-out: pA2 data for NK3 (converted)
T2 sequence (P29371 1-465): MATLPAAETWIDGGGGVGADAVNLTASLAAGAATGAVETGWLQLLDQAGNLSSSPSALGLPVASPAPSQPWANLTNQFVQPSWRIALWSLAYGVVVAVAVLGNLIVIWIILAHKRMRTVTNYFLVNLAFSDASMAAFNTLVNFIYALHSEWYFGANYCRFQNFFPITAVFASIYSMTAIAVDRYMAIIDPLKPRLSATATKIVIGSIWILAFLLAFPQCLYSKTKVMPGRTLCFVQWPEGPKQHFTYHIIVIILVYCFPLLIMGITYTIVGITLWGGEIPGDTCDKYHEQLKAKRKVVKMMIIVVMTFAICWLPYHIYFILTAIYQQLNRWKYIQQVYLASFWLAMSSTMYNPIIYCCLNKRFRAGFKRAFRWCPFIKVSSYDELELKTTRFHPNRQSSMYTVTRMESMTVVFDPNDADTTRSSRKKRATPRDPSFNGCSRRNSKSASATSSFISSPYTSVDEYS

human NK2-receptor [3] = target: T1, human NK2-receptor; assay: Binding potency of the test substances to NK2-receptors in vitro ([3H]-SR 48968 displacement); parameters: expressed in transfected cells; host or cells: CHO cells (membrane preparation); conditions: human NK2-receptor in CHO cell membranes, [3H]-SR 48968 (saredutant), average of at least three measurements; for Ki: read-out: pKi, binding potency to NK2-receptors (converted)
Description: 2. Determination of the Binding Potency of the Test Substances to NK2-Receptors in Vitro
The affinity of test compounds for NK2-receptors can be determined by measuring the ability of the test compound to displace a radiolabeled ligand from its specific binding site.
(§1) The radiolabel used in this assay is [^3H]-SR 48968 (saredutant). Receptors were obtained from membrane preparations of CHO-cells (Chinese Hamster Ovary cells), in which the human NK2-receptor was stably expressed. Membranes were incubated with [^3H]-saredutant in the absence or presence of test compounds at different concentrations, diluted in a buffer system. Separation of bound radioactivity from free radioactivity was done by filtration through glass fiber filters (Packard GF/B) with several washings with ice-cold buffer solution. Bound radioactivity was measured with a liquid scintillation counter (total binding). Unspecific binding was determined by incubation with an excess (0.1 μmol/l) of unlabeled saredutant. Specific binding is obtained by subtracting the unspecific binding from the total binding.
(§2) Radioactivity of the specific binding was plotted against the concentration of the test compound and IC50 values, i.e. the concentration of test compound by which 50% of the radioligand is displaced, were calculated. The inhibition constant (Ki) was calculated according to the Cheng-Prusoff equation, and listed as its negative logarithmic value (pKi). The pKi value describes the potency of a test compound to bind to a receptor.
(§3) The average result of all measurements is listed above.

human NK3 receptor [4] = target: T2, human NK3 receptor; assay: Binding potency of the test substances to NK3-receptors in vitro ([3H]-SR 142801 displacement); parameters: expressed in transfected cells; host or cells: CHO cells (membrane preparation); conditions: human NK3-receptor in CHO cell membranes, [3H]-SR 142801 (osanetant), average of at least three measurements; for Ki: read-out: pKi, binding potency to NK3-receptors (converted)
Description: 3. Determination of the Binding Potency of the Test Substances to NK3-Receptors in Vitro
The affinity of test compounds for NK3-receptors can be determined by measuring the ability of the test compound to displace a radiolabeled ligand from its specific binding site.
as §1, with “142801 (osanetant).” for “48968 (saredutant).”, “NK3-receptor” for “NK2-receptor”, “[^3H]-osanetant” for “[^3H]-saredutant”, “(1” for “(0.1”, “osanetant.” for “saredutant.”
as §2, with “(pKi)” for “(pKi).”
as §3

human NK1-receptor [5] = target: T3, human NK1-receptor (Homo sapiens, UniProt P25103); assay: Binding potency of the test substances to NK1-receptors in vitro ([3H]-Substance P displacement); conditions: human NK1-receptor in CHO cell membranes, average of at least three measurements
T3 sequence (P25103 whole entry): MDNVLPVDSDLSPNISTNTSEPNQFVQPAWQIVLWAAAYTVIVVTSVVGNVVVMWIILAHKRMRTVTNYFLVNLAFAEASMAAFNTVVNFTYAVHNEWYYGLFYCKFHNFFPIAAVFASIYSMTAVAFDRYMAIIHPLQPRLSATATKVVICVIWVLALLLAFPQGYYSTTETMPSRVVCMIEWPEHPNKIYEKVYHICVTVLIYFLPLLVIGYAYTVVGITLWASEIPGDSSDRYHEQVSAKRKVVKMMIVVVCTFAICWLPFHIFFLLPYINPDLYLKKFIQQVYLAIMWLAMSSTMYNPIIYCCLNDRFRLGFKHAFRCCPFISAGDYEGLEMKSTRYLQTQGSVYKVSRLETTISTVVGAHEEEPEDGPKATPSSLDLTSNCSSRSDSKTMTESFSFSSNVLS
Method: 1. Determination of the Binding Potency of the Test Substances to NK1-Receptors in Vitro
The affinity of test compounds for NK1-receptors can be determined by measuring the ability of the test compound to displace a radiolabeled ligand from its specific binding site. The tests were performed at Solvay Pharmaceuticals, Weesp, The Netherlands.
Separation of bound radioactivity from free radioactivity was done by filtration through glass fiber filters (Packard GF/B) with several washings with ice-cold buffer solution. Bound radioactivity was measured with a liquid scintillation counter (total binding).
The inhibition constant (Ki) was calculated according to the Cheng-Prusoff equation, and listed as its negative logarithmic value (pKi). The pKi value describes the potency of a test compound to bind to a receptor.

human NK1-receptor [6] = target: T3, human NK1-receptor; assay: Functional cellular test, Ca2+ measurements using FLIPR for NK1 activity; type: cell-based; parameters: expressed in transfected cells; host or cells: CHO fibroblast cells; conditions: read-out: pA2 data for NK1 (converted)
Description: The NK receptor is coupled to Gq.
All steps were done under sterile conditions.

[7] = read-out: pKi, binding potency to NK1-receptors (converted)

Row | SMILES | Kb (human NK2-receptor [1]) [nM] | Kb (human NK3 receptor [2]) [nM] | Ki (human NK2-receptor [3]) [nM] | Ki (human NK3 receptor [4]) [nM] | Ki (human NK1-receptor [5]; [7]) [nM] | other results
1 | CC(=O)Oc1ccc(C(=O)N(C)C[C@@H](CCN2CCC(C(=O)N(C)C)(N3CCCCC3)CC2)c2ccc(Cl)c(Cl)c2)cc1 [compound 5, 4-({[(2S)-2-(3,4-dichlorophenyl)-4-{4′-[(dimethylamino)-carbonyl]-1,4′-bipiperidin-1′-yl}butyl](methyl)amino}carbonyl)phenyl acetate] | 3.16 | 3.16 | 1 | 5.01 |  | 
2 | CN(C)C(=O)C1(N2CCCCC2)CCN(CC[C@H](CN(C)C(=O)c2ccccc2O)c2ccc(Cl)c(Cl)c2)CC1 [compound 12] |  |  |  |  |  | pA2 data for NK2 (human NK2-receptor [1]; CHO cells, human NK2, FLIPR Ca2+, agonist NKA 10^-7 M): 8.3; pA2 data for NK3 (human NK3 receptor [2]; cell line with human NK3 receptor and apoaequorin, agonist senktide 5x10-8 M): 7.9; pKi, binding potency to NK2-receptors (human NK2-receptor [3]): 8.7; pKi, binding potency to NK3-receptors (human NK3 receptor [4]): 7.9
3 | CN(C)C(=O)C1(N2CCCCC2)CCN(CCC(CN(C)C(=O)c2cc[n+]([O-])cc2)c2ccc(Cl)c(Cl)c2)CC1 (stereo not shown) [compound 17] | 15.8 | 126 | 31.6 |  |  | 
4 | CNc1ccccc1C(=O)N(C)CC(CCN1CCC(C(=O)N(C)C)(N2CCCCC2)CC1)c1ccc(Cl)c(Cl)c1 (stereo not shown) [compound 24] |  |  | 5.01 |  | 79.4 | 
5 | CN(C)C(=O)C1(N2CCCCC2)CCN(CCC(CN(C)C(=O)c2ccoc2)c2ccc(Cl)c(Cl)c2)CC1 (stereo not shown) [compound 36] | 0.501 | 63.1 | 1.58 | 5.01 |  | 
6 | CN(C)C(=O)C1(N2CCCCC2)CCN(CCC(CN(C)C(=O)c2cccs2)c2ccc(Cl)c(Cl)c2)CC1 (stereo not shown) [compound 37] | 1.58 | 31.6 | 1.58 | 20 |  | 
7 | CN(C)C(=O)C1(N2CCCCC2)CCN(CCC(CN(C)C(=O)c2ccccn2)c2ccc(Cl)c(Cl)c2)CC1 (stereo not shown) [compound 43] | 0.631 | 31.6 | 0.251 | 5.01 |  | 
8 | CN(C)C(=O)C1(N2CCCCC2)CCN(CCC(CN(C)C(=O)Cc2ccncc2)c2ccc(Cl)c(Cl)c2)CC1 (stereo not shown) [compound 51] | 39.8 | 31.6 | 79.4 | 6.31 |  | 
9 | CN(C)C(=O)C1(N2CCCCC2)CCN(CCC(CN(C)C(=O)c2cccc(C(F)(F)F)c2)c2ccc(Cl)c(Cl)c2)CC1 (stereo not shown) [compound 83] | 15.8 |  | 5.01 | 3.16 |  | Ki (human NK1-receptor [5]; pKi, binding potency to NK1-receptors): 79.4 nM

Now from value to molecule, other results behind:

Row | Kb (human NK2-receptor [1]) [nM] | Kb (human NK3 receptor [2]) [nM] | Ki (human NK2-receptor [3]) [nM] | Ki (human NK3 receptor [4]) [nM] | Ki (human NK1-receptor [5]; [7]) [nM] | SMILES | other results
10 |  | 50.1 |  | 3.16 |  | CN(C)C(=O)C1(N2CCCCC2)CCN(CCC(CN(C)C(=O)C2CCOCC2)c2ccc(Cl)c(Cl)c2)CC1 (stereo not shown) [compound 53] | 
11 | 2 | 7.94 | 6.31 | 3.98 |  | CN(C)C(=O)C1(N2CCCCC2)CCN(CCC(CN(C)C(=O)c2ccc(OC(F)(F)F)cc2)c2ccc(Cl)c(Cl)c2)CC1 (stereo not shown) [compound 55] | 
12 |  |  | 25.1 | 5.01 | 63.1 | CN(C)C(=O)C1(N2CCCCC2)CCN(CCC(CN(C)C(=O)Cc2ccc(C(F)(F)F)c(C(F)(F)F)c2)c2ccc(Cl)c(Cl)c2)CC1 (stereo not shown) [compound 56] | 
13 | 25.1 | 15.8 | 6.31 | 5.01 |  | Cc1c(C(=O)N(C)CC(CCN2CCC(C(=O)N(C)C)(N3CCCCC3)CC2)c2ccc(Cl)c(Cl)c2)nnn1Cc1ccccc1 (stereo not shown) [compound 67] | 
14 |  |  | 25.1 | 63.1 | 63.1 | CN(C)C(=O)C1(N2CCCCC2)CCN(CCC(CN(C)C(=O)c2cc(C(F)(F)F)cc(C(F)(F)F)c2)c2ccc(Cl)c(Cl)c2)CC1 (stereo not shown) [compound 70] | 
15 |  |  | 2 | 79.4 | 79.4 | CN(C)C(=O)C1(N2CCCCC2)CCN(CCC(CN(C)C(=O)c2cccc(Cl)c2)c2ccc(Cl)c(Cl)c2)CC1 (stereo not shown) [compound 80] | 
16 |  |  | 2.51 | 25.1 | 79.4 | COc1cccc(C(=O)N(C)CC(CCN2CCC(C(=O)N(C)C)(N3CCCCC3)CC2)c2ccc(Cl)c(Cl)c2)c1 (stereo not shown) [compound 82] | 
17 | 1.26 |  | 2 |  |  | CN(C)C(=O)C1(N2CCN(CC[C@H](CN(C)C(=O)c3ccccc3)c3ccc(Cl)c(Cl)c3)CC2)CCCCC1 [compound 96, N-[(2S)-2-(3,4-dichlorophenyl)-4-(4-{1-[(dimethylamino)-carbonyl]cyclohexyl}piperazin-1-yl)butyl]-N-methylbenzamide] | Kb (human NK1-receptor [6]): 31.6 nM
18 | 0.251 | 79.4 | 2 | 79.4 |  | CN(C)C(=O)C1CCCCN1C1CCN(CCC(CN(C)C(=O)c2ccccc2)c2ccc(Cl)c(Cl)c2)CC1 (stereo not shown) [compound 97] | 
19 |  |  | 50.1 | 50.1 | 12.6 | CN(CC(CCN1CCC(C(=O)N2CCCCC2)(N2CCCCC2)CC1)c1ccc(Cl)c(Cl)c1)C(=O)c1cc(C#N)cc2ccccc12 (stereo not shown) [compound 125] | 
20 |  |  | 10 | 39.8 | 6.31 | CN(CC(CCN1CCC(C(=O)N2CCCC2)(N2CCCCC2)CC1)c1ccc(Cl)c(Cl)c1)C(=O)c1cc(C#N)cc2ccccc12 (stereo not shown) [compound 126] | 
21 |  |  | 2 |  | 79.4 | CN(C)C(=O)C1(N(C)C)CCN(CCC(CN(C)C(=O)c2ccccc2)c2ccc(Cl)c(Cl)c2)CC1 (stereo not shown) [compound 127] | 

— US20070219214A1, “Dual NK2/NK3-antagonists, pharmaceutical compositions comprising them, and processes for their preparation” (Solvay pharmaceuticals GmbH, priority 2006, published 2007)
